According to ChEMBL document CHEMBL6127035, “Novel pyridazinone derivatives bind to KSRP: Synthesis, anti-tumor biological evaluations and modelling insights” (Eur J Med Chem, 2024):
Active and inactive are the calls of the source. The calls are words filed in the database; no cut-off is given here.

What was measured:
MCF7 [1] = experiment: Inhibition of cell migration in human MCF7 cells assessed as reduction in wound healing index at 0.625 uM measured after 72 hrs by scratch assay; format: functional, cell-based
NCI-H460 = experiment: Antiproliferative activity against human NCI-H460 cells assessed as reduction in cell viability incubated for 2 days by MTT assay; format: functional, cell-based; conditions: NCI-H460, 48 h
MCF7 [2] = experiment: Antitumor activity against human MCF7 cells xenografted in BALB/C-nu/nu mouse model assessed as decrease in tumor weight at 30 mg/kg, iv administered every other day for 15 days relative to control; format: functional; set-up: scale not given: the % may be the effect or the level left; conditions: time 15 day
MCF7 [3] = experiment: Induction of apoptosis in human MCF7 cells assessed as early apoptotic cells at 0.62 uM incubated for 48 hrs by Annexin V-FITC/PI staining based flow cytometric analysis (reference value: 6.33 %); format: functional
MCF7 [4] = experiment: Induction of apoptosis in human MCF7 cells assessed as early apoptotic cells at 1.25 uM incubated for 48 hrs by Annexin V-FITC/PI staining based flow cytometric analysis (reference value: 6.33 %); format: functional
[5] = Toxicity in BALB/C-nu/nu mouse xenografted with human MCF7 cells assessed as reduction in body weight at 30 mg/kg, iv administered every other day for 15 days relative to control; format: organism-based; set-up: scale not given: the % may be the effect or the level left; conditions: in vivo, 360 h, time 15 day
[6] = Toxicity in BALB/C-nu/nu mouse xenografted with human MCF7 cells assessed as histopathological lesions in liver at 20 to 30 mg/kg, iv administered every other day for 15 days by H and E staining based analysis; format: organism-based; conditions: in vivo, 360 h, dose 20-30 mg/kg, time 15 day
HCT-116 = experiment: Antiproliferative activity against human HCT-116 cells assessed as reduction in cell viability incubated for 2 days by MTT assay; format: functional, cell-based; conditions: HCT-116, 48 h
MDA-MB-231 = experiment: Antiproliferative activity against human MDA-MB-231 cells assessed as reduction in cell viability incubated for 2 days by MTT assay; format: functional, cell-based; conditions: MDA-MB-231, 48 h
[7] = Toxicity in BALB/C-nu/nu mouse xenografted with human MCF7 cells assessed as histopathological lesions in lung at 20 to 30 mg/kg, iv administered every other day for 15 days by H and E staining based analysis; format: organism-based; conditions: in vivo, 360 h, dose 20-30 mg/kg, time 15 day
[8] = Acute toxicity in BALB/c nu/nu mouse assessed as survival rate at 110 mg/kg, ip administered for 7 days relative to control; format: organism-based; conditions: in vivo, time 7 day
MCF7 [9] = experiment: Induction of apoptosis in human MCF7 cells assessed as viable cells at 0.62 uM incubated for 48 hrs by Annexin V-FITC/PI staining based flow cytometric analysis (reference value: 87.2 %); format: functional; conditions: read-out: Activity
[10] = Acute toxicity in BALB/c nu/nu mouse assessed as survival rate at 120 mg/kg, ip administered for 7 days relative to control; format: organism-based; conditions: in vivo, time 7 day
MCF7 [11] = experiment: Inhibition of colony formation in human MCF7 cells assessed as reduction in colony count incubated for 2 weeks by crystal violet staining based analysis; format: functional, cell-based; conditions: dose 1.25-2.5 µM
[12] = Toxicity in BALB/C-nu/nu mouse xenografted with human MCF7 cells assessed as histopathological lesions in kidney at 20 to 30 mg/kg, iv administered every other day for 15 days by H and E staining based analysis; format: organism-based; conditions: in vivo, 360 h, dose 20-30 mg/kg, time 15 day
MCF7 [13] = experiment: Induction of apoptosis in human MCF7 cells assessed as necrotic cells at 2.5 uM incubated for 48 hrs by Annexin V-FITC/PI staining based flow cytometric analysis (reference value: 1.16 %); format: functional
MCF7 [14] = experiment: Induction of apoptosis in human MCF7 cells assessed as early apoptotic cells at 2.5 uM incubated for 48 hrs by Annexin V-FITC/PI staining based flow cytometric analysis (reference value: 6.33 %); format: functional
MCF7 [15] = experiment: Antitumor activity against human MCF7 cells xenografted in BALB/C-nu/nu mouse model assessed as decrease in tumor volume at 30 mg/kg, iv administered every other day for 15 days relative to control; format: functional; set-up: scale not given: the % may be the effect or the level left; conditions: time 15 day
MCF7 [16] = experiment: Antitumor activity against human MCF7 cells xenografted in BALB/C-nu/nu mouse model assessed as decrease in tumor volume at 20 mg/kg, iv administered every other day for 15 days relative to control; format: functional; set-up: scale not given: the % may be the effect or the level left; conditions: time 15 day
[17] = Acute toxicity in ip dosed BALB/c nu/nu mouse assessed as lethal dose measured after 7 days; format: organism-based; conditions: in vivo, time 7 day
MCF7 [18] = experiment: Antitumor activity against human MCF7 cells xenografted in BALB/C-nu/nu mouse model assessed as inhibition of Ki-67 expression level at 20 to 30 mg/kg, iv administered every other day for 15 days by immunohistochemical analysis; format: functional, organism-based; conditions: dose 20-30 mg/kg, time 15.0 day
MCF7 [19] = experiment: Induction of apoptosis in human MCF7 cells assessed as late apoptotic cells at 1.25 uM incubated for 48 hrs by Annexin V-FITC/PI staining based flow cytometric analysis (reference value: 5.31 %); format: functional
MCF7 [20] = experiment: Induction of apoptosis in human MCF7 cells assessed as necrotic cells at 1.25 uM incubated for 48 hrs by Annexin V-FITC/PI staining based flow cytometric analysis (reference value: 1.16 %); format: functional
KB = experiment: Antiproliferative activity against human KB cells assessed as reduction in cell viability incubated for 2 days by MTT assay; format: functional, cell-based; conditions: 48 h
[21] = Acute toxicity in BALB/c nu/nu mouse assessed as survival rate at 90 mg/kg, ip administered for 7 days relative to control; format: organism-based; conditions: in vivo, time 7 day
Mitochondrial membrane = experiment: Induction of mitochondrial membrane potential loss in human MCF7 cells assessed as increase in green fluorescence at 10 uM incubated for 24 hrs by JC-1 staining based automated microscopic immunofluorescence analysis; format: cell membranes
[22] = Toxicity in BALB/C-nu/nu mouse xenografted with human MCF7 cells assessed as histopathological lesions in heart at 20 to 30 mg/kg, iv administered every other day for 15 days by H and E staining based analysis; format: organism-based; conditions: in vivo, 360 h, dose 20-30 mg/kg, time 15 day
MCF7 [23] = experiment: Induction of cell cycle arrest in human MCF7 cells assessed as increase in sub-G1 phase cells at 5 uM incubated for 24 hrs by PI staining based flow cytometric analysis; format: functional
MCF7 [24] = experiment: Antiproliferative activity against human MCF7 cells assessed as reduction in cell viability incubated for 2 days by MTT assay; format: functional, cell-based; conditions: MCF7, 48 h
MCF7 [25] = experiment: Antiproliferation against human MCF7 cells assessed as effect on cell proliferation at 0.625 uM incubated for 2 days by MTT assay; format: functional, cell-based; conditions: time 2.0 day
[26] = Toxicity in BALB/C-nu/nu mouse xenografted with human MCF7 cells assessed as histopathological lesions in spleen at 20 to 30 mg/kg, iv administered every other day for 15 days by H and E staining based analysis; format: organism-based; conditions: in vivo, 360 h, dose 20-30 mg/kg, time 15 day
[27] = Cytotoxicity against human L02 cells assessed as reduction in cell viability incubated for 2 days by MTT assay; format: toxicity, cell-based
MCF7 [28] = experiment: Induction of ROS accumulation in human MCF7 cells assessed as increase in green fluorescence at 5 uM incubated for 24 hrs by DCFH-DA staining based automated microscopic immunofluorescence analysis; format: functional, cell-based
MCF7 [29] = experiment: Induction of morphological changes in human MCF7 cells assessed as cell membrane blebbing at 10 uM measured after 6 hrs by bright field microscopic; format: functional, cell-based

For `CN(CCO)S(=O)(=O)c1ccc(-n2ncc(Cl)c(Cl)c2=O)cc1`, the inhibition (MCF7 [1]) was “Active”, the IC50 (NCI-H460) was 1020 nM and the Activity (MCF7 [2]) was 74.2%. The Activity (MCF7 [3]) was 7.62%, the Activity (MCF7 [4]) was 10.2% and the Activity [5] was 20%. The Activity [6] was “Non-Toxic”, the IC50 (HCT-116) was 780 nM and the IC50 (MDA-MB-231) was 8350 nM. The Activity [7] was “Non-Toxic”, the survival at 168 h [8] was 20% and the viability at 0.62 µM (MCF7 [9]) was 84.5%. The survival at 168 h [10] was 0%, the inhibition (MCF7 [11]) was “Dose-Dependent Effect” and the Activity [12] was “Non-Toxic”. For the same molecule, the Activity (MCF7 [13]) was 2.77%, the Activity (MCF7 [14]) was 26.7% and the Activity (MCF7 [15]) was 61.6%. For the same molecule, the Activity (MCF7 [16]) was 37.7%, the LD50 at 168 h [17] was 105 mg/kg and the Activity (MCF7 [18]) was “Active”. It also gave an Activity (MCF7 [19]) of 13.5%, an Activity (MCF7 [20]) of 1.26% and an IC50 (KB) of 380 nM. For the same molecule, the survival at 168 h [21] was 100%, the Activity (Mitochondrial membrane) was “Active” and the Activity [22] was “Non-Toxic”. The Activity (MCF7 [23]) was “Active”, the IC50 (MCF7 [24]) was 3100 nM and the Activity (MCF7 [25]) was “inactive”. The Activity [26] was “Non-Toxic”, the IC50 at 2 days [27] was 8340 nM and the Activity (MCF7 [28]) was “Active”. The Activity (MCF7 [29]) was “Active”.
